# Data from patent publication US8524738B2, “Quinolinones and quinoxalinones as antibacterial composition” (Toyama Chemical Co., Ltd., priority 2005, dated 2013).
# Counter-ions that a name gives are not always drawn. Like-named read-outs stand apart in the source and are kept apart here.
# Tested on: Staphylococcus aureus (S. aureus FDA209P)
# Assay: Sensitivity Test 1: antibacterial activity (MIC) by micro-dilution method
# Type: cell-based
# Protocol: Test compounds were initially dissolved in dimethylsulfoxide. Antibacterial activities (MICs) of the same compounds were determined by the micro-dilution method as recommended by the Japanese Society of Chemotherapy.
# Staphylococcus aureus (S. aureus FDA209P) was used as the test organism. The bacterial cells were grown overnight at 35° C. on Mueller-Hinton agar (MHA) plates. The bacterial cells were then suspended in sterile saline and adjusted to the turbidity of a 0.5 McFarland standard. The inoculum was prepared by 10-fold dilution of this suspension. Approximately 0.005 mL aliquots of the inoculum prepared above were subsequently inoculated into Cation-adjusted Mueller-Hinton broth (CAMHB, 100 μL/well) including the test compounds for overnight incubation at 35° C.
# [1] = S. aureus FDA209P, CAMHB, overnight incubation at 35° C., lowest concentration with virtually no growth, read-out: MIC
SMILES,MIC (FDA209P) [µg/mL],MIC [1] [µg/mL]
"CCc1ccc(CNC2CCN(CCn3c(=O)cc(C(=O)NC)c4ccc(OC)cc43)CC2)cc1 [Example 339, 1-(2-(4-(4-ethylbenzylamino)piperidin-1-yl)ethyl)-7-methoxy-N-methyl-2-oxo-1,2-dihydroquinoline-4-carboxamide hydrochloride]",0.0625,
"COc1ccc2c(C(N)=O)cc(=O)n(CCN3CCC(NCc4ccc5c(c4)OCCO5)CC3)c2c1 [Example 70, 1-(2-(4-((2,3-dihydro-1,4-benzodioxin-6-ylmethyl)amino)piperidin-1-yl)ethyl)-7-methoxy-2-oxo-1,2-dihydroquinoline-4-carboxamide]",,0.25
"Cc1cc(=O)n(CCN2CCC(NCc3ccc4c(c3)OCCO4)CC2)c2cc(OC(F)F)ccc12 [Example 127, 7-(difluoromethoxy)-1-(2-(4-((2,3-dihydro-1,4-benzodioxin-6-ylmethyl)amino)piperidin-1-yl)ethyl)-4-methylquinolin-2(1H)-one hydrochloride]",0.0625,
"COc1ccc2c(C)cc(=O)n(CCN3CCC(NCCCc4ccccc4)CC3)c2c1 [Example 39, 7-methoxy-4-methyl-1-(2-(4-((3-phenylpropyl)amino)piperidin-1-yl)ethyl)quinolin-2(1H)-one]",,0.0625
"COc1ccc2c(C(=O)Nc3ccccc3)cc(=O)n(CCN3CCC(NCc4ccc5c(c4)OCCO5)CC3)c2c1 [Example 83, 1-(2-(4-((2,3-dihydro-1,4-benzodioxin-6-ylmethyl)amino)piperidin-1-yl)ethyl)-7-methoxy-2-oxo-N-phenyl-1,2-dihydroquinoline-4-carboxamide]",,0.0625
"COc1ccc2ncc(=O)n(CCN3CCC(NCc4ccc(C)c(F)c4)CC3)c2c1 [Example 354, 1-(2-(4-(3-fluoro-4-methylbenzylamino)piperidin-1-yl)ethyl)-7-methoxyquinoxalin-2(1H)-one hydrochloride]",0.0078,
"COc1ccc2c(C)cc(=O)n(CCN3CCC(NCC(=O)Nc4ccccn4)CC3)c2c1 [Example 18, N-(pyridin-2-yl)-N^2-(1-(2-(7-methoxy-4-methyl-2-oxoquinolin-1(2H)-yl)ethyl)piperidin-4-yl)glycinamide]",,0.25
"Cc1cc(=O)n(CCN2CCC(NCc3ccc4c(c3)OCCO4)CC2)c2cc(-n3ccnc3)ccc12 [Example 125, 1-(2-(4-((2,3-dihydro-1,4-benzodioxin-6-ylmethyl)amino)piperidin-1-yl)ethyl)-7-(1H-imidazol-1-yl)-4-methylquinolin-2(1H)-one hydrochloride]",0.0313,
"COc1cc(CO)c2ccc(=O)n(CCN3CCC(NCc4ccc5c(c4)OCCO5)CC3)c2c1 [Example 189, 1-(2-(4-((2,3-dihydro-1,4-benzodioxin-6-ylmethyl)amino)piperidin-1-yl)ethyl)-5-hydroxymethyl-7-methoxyquinolin-2(1H)-one hydrochloride]",0.0625,
"Nc1cc(=O)n(CCN2CCC(NCc3ccc4c(c3)OCCO4)CC2)c2ccccc12 [Example 97, 4-amino-1-(2-(4-((2,3-dihydro-1,4-benzodioxin-6-ylmethyl)amino)piperidin-1-yl)ethyl)-quinolin-2(1H)-one hydrochloride]",0.125,
"COc1ccc2ccc(=O)n(CCN3CCC(NC(=O)c4ccc5c(c4)OCCO5)CC3)c2c1 [Example 36, N-(1-(2-(7-methoxy-2-oxoquinolin-1(2H)-yl)ethyl)piperidin-4-yl)-2,3-dihydro-1,4-benzodioxin-6-carboxamide]",,0.125
"COc1ccc2c(C)cc(=O)n(CCN3CCC(NCCSc4cccs4)CC3)c2c1 [Example 57, 7-methoxy-4-methyl-1-(2-(4-((2-(2-thienylthio)ethyl)amino)piperidin-1-yl)ethyl)quinolin-2(1H)one hydrochloride]",0.0625,
"CNC(=O)c1cc(=O)n(CCN2CCC(NCC#Cc3ccccc3)CC2)c2cc(OC)ccc12 [Example 344, 7-methoxy-N-methyl-2-oxo-1-(2-(4-(3-phenyl-2-propyn-1-ylamino)piperidin-1-yl)ethyl)-1,2-dihydroquinoline-4-carboxamide hydrochloride]",0.125,
"CCNC(=O)c1cc(=O)n(CCN2CCC(NCc3ccc4c(c3)OCCO4)CC2)c2cc(OC)ccc12 [Example 77, 1-(2-(4-((2,3-dihydro-1,4-benzodioxin-6-ylmethyl)amino)piperidin-1-yl)ethyl)N-ethyl-7-methoxy-2-oxo-1,2-dihydroquinoline-4-carboxamide]",,0.125
"COc1ccc2ncc(=O)n(CCN3CCC(NCc4ccc5c(n4)NC(=O)CO5)CC3)c2c1 [Example 400, 7-methoxy-1-(2-(4-((3-oxo-3,4-dihydro-2H-pyrido[3,2-b][1,4]oxazin-6-yl)methylamino)piperidin-1-yl)ethyl)quinoxalin-2(1H)-one hydrochloride]",0.0156,
"O=C1CSc2cc(Cl)c(CNC3CCN(CCn4c(=O)cnc5ccc(F)cc54)CC3)nc2N1 [Example 368, 1-(2-(4-((7-chloro-3-oxo-3,4-dihydro-2H-pyrido[3,2-b][1,4]thiazin-6-yl)methylamino)piperidin-1-yl)ethyl)-7-fluoroquinoxalin-2(1H)-one hydrochloride]",0.0156,

SMILES,MIC (FDA209P) [µg/mL],MIC [1] [µg/mL]
"CCOc1ccc2c(C)cc(=O)n(CCN3CCC(NCc4ccc5c(c4)OCCO5)CC3)c2c1 [Example 104, 1-(2-(4-((2,3-dihydro-1,4-benzodioxin-6-ylmethyl)amino)piperidin-1-yl)ethyl)-7-ethoxy-4-methylquinolin-2(1H)-one hydrochloride]",0.0625,
"O=c1cnc2ccc(Br)cc2n1CCN1CCC(NCc2ccc3c(c2)OCCO3)CC1 [Example 363, 1-(2-(4-((2,3-dihydro-1,4-benzodioxin-6-ylmethyl)amino)piperidin-1-yl)ethyl)-7-bromoquinoxalin-2(1H)-one hydrochloride]",0.0313,
"CNC(=O)c1cc(=O)n(CCN2CCC(NCc3cc4sccc4s3)CC2)c2cc(OC)ccc12 [Example 342, 7-methoxy-N-methyl-2-oxo-1-(2-(4-((thieno[3,2-b]thiophen-2-yl)methylamino)piperidin-1-yl)ethyl)-1,2-dihydroquinoline-4-carboxamide hydrochloride]",0.0313,
"COc1cccc2ccc(=O)n(CCN3CCC(NCc4ccc5c(c4)OCCO5)CC3)c12 [Example 244, 1-(2-(4-((2,3-dihydro-1,4-benzodioxin-6-ylmethyl)amino)piperidin-1-yl)ethyl)-8-methoxyquinolin-2(1H)-one hydrochloride]",0.0625,
"COc1ccc2ncc(=O)n(CCN3CCC(NCc4cc5ccccc5s4)CC3)c2c1 [Example 357, 1-(2-(4-((benzo[b]thiophen-2-yl)methylamino)piperidin-1-yl)ethyl)-7-methoxyquinoxalin-2(1H)-one hydrochloride]",0.0156,
"COc1ccc2ccc(=O)n(CCCC3(C(=O)O)CCN(CCSc4cccc(F)c4)CC3)c2c1 [Example 51, 1-(2-((3-fluorophenyl)thio)ethyl)-4-(3-(7-methoxy-2-oxoquinolin-1(2H)-yl)propyl)piperidine-4-carboxylic acid]",,0.125
"CNC(=O)c1cc(=O)n(CCN2CCC(NCc3cc4c(cn3)OCCO4)CC2)c2cc(OC)ccc12 [Example 66, 1-(2-(4-((2,3-dihydro(1,4)dioxino(2,3-c)pyridin-7-ylmethyl)amino)piperidin-1-yl)ethyl)-7-methoxy-N-methyl-2-oxo-1,2-dihydroquinoline-4-carboxamide]",,0.25
"CCc1ccc(CNC2CCN(CCn3c(=O)cnc4ccc(F)cc43)CC2)cc1 [Example 347, 1-(2-(4-(4-ethylbenzylamino)piperidin-1-yl)ethyl)-7-fluoroquinoxalin-2(1H)-one hydrochloride]",0.0156,
"COc1ccc2ncc(=O)n(CCN3CCC(NCc4cc5c(cn4)OCCCO5)CC3)c2c1 [Example 375, hydrochloride]",0.0156,
"CNC(=O)c1cc(OC)cc2c1ccc(=O)n2CCN1CCC(NCc2ccc3c(c2)OCCO3)CC1 [Example 186, 1-(2-(4-((2,3-dihydro-1,4-benzodioxin-6-ylmethyl)amino)piperidin-1-yl)ethyl)-7-methoxy-N-methyl-2-oxo-1,2-dihydroquinoline-5-carboxamide hydrochloride]",0.25,
"COc1ccc2c(C)cc(=O)n(CCN3CCN(CCc4ccc5c(c4)OCCO5)C(C(=O)O)C3)c2c1 (stereo not shown) [Example 53, 1-(2-(2,3-dihydro-1,4-benzodioxin-6-yl)ethyl)-4-(2-(7-methoxy-4-methyl-2-oxoquinolin-1(2H)-yl)ethyl)piperazine-2-carboxylic acid]",,1
"COc1ccc2ncc(=O)n(CCN3CCC(NCc4nc5c(cc4Cl)SCC(=O)N5)CC3)c2c1 [Example 355, 1-(2-(4-((7-chloro-3-oxo-3,4-dihydro-2H-pyrido[3,2-b][1,4]thiazin-6-yl)methylamino)piperidin-1-yl)ethyl)-7-methoxyquinoxalin-2(1H)-one hydrochloride]",0.0156,
"COc1ccc2c(C(=O)NC3CC3)cc(=O)n(CCN3CCC(NCc4ccc5c(c4)OCCO5)CC3)c2c1 [Example 79, N-cyclopropyl-1-(2-(4-((2,3-dihydro-1,4-benzodioxin-6-ylmethyl)amino)piperidin-1-yl)ethyl)-7-methoxy-2-oxo-1,2-dihydroquinoline-4-carboxamide]",,0.0625
"CCc1ccc(CNC2CCN(CCn3c(=O)cnc4ccc(OC)cc43)CC2)cc1 [Example 353, 1-(2-(4-(4-ethylbenzylamino)piperidin-1-yl)ethyl)-7-methoxyquinoxalin-2(1H)-one hydrochloride]",0.0156,
"COc1ccc2ncc(=O)n(CCN3CCC(NCc4cc5sccc5s4)CC3)c2c1 [Example 360, 1-(2-(4-(((thieno[3,2-b]thiophen-2-yl)methylamino)piperidin-1-yl)ethyl)-7-methoxyquinoxalin-2(1H)-one hydrochloride]",,0.0078
